In ChEMBL document CHEMBL3044779, “The action of herbicides on fatty acid biosynthesis and elongation in barley and cucumber” (Pest Manag Sci, 2010):

Columns and labels:
Cucumis sativus [1] = test: Inhibition of fatty acid synthesis in Cucumis sativus (cucumber) using [14C]acetate assessed as [14C]-labeled 18C fatty acid level at 100 uM after 3 hr by liquid scintillation counting (reference value: 43.9 +/- 3.6%); format: functional; set-up: scale not given: the % may be the effect or the level left
Hordeum vulgare [2] = test: Inhibition of fatty acid synthesis in Hordeum vulgare (barley) using [14C]malonate assessed as [14C]-labeled 20C fatty acid level at 1 uM after 3 hr by liquid scintillation counting (reference value: 6.1 +/- 0.5%); format: functional; set-up: scale not given: the % may be the effect or the level left
Acetyl-CoA carboxylase [3] = target: T1, Acetyl-CoA carboxylase (Zea mays, UniProt Q3V4E6); test: Inhibition of Zea mays (maize) cytosolic ACCase using acetyl-coA as substrate assessed as inhibition of [14C]NaHCO3 incorporation into malonyl-coA incubated for 10 min prior to substrate addition measured for 20 min by liquid scintillation counting
Acetyl-CoA carboxylase [4] = target: T1, Acetyl-CoA carboxylase; test: Inhibition of Zea mays (maize) chloroplastic ACCase using acetyl-coA as substrate assessed as inhibition of [14C]NaHCO3 incorporation into malonyl-coA incubated for 10 min prior to substrate addition measured for 20 min by liquid scintillation counting
Hordeum vulgare [5] = test: Inhibition of fatty acid synthesis in Hordeum vulgare (barley) using [14C]acetate assessed as [14C]-labeled 24C fatty acid level at 1 uM after 3 hr by liquid scintillation counting (reference value: 11 +/- 0.8%); format: functional; set-up: scale not given: the % may be the effect or the level left
Hordeum vulgare [6] = test: Inhibition of fatty acid synthesis in Hordeum vulgare (barley) using [14C]acetate assessed as [14C]-labeled 18C fatty acid level at 1 uM after 3 hr by liquid scintillation counting (reference value: 42.6 +/- 2.4%); format: functional; set-up: scale not given: the % may be the effect or the level left
Cucumis sativus [7] = test: Inhibition of fatty acid synthesis in Cucumis sativus (cucumber) using [14C]acetate assessed as [14C]-labeled 22C fatty acid level at 100 uM after 3 hr by liquid scintillation counting (reference value: 10.2 +/-1.6%); format: functional; set-up: scale not given: the % may be the effect or the level left
Hordeum vulgare [8] = test: Inhibition of fatty acid synthesis in Hordeum vulgare (barley) using [14C]malonate assessed as [14C]-labeled 24C fatty acid level at 1 uM after 3 hr by liquid scintillation counting (reference value: 20.7 +/- 1.8%); format: functional; set-up: scale not given: the % may be the effect or the level left
Hordeum vulgare [9] = test: Inhibition of fatty acid synthesis in Hordeum vulgare (barley) using [14C]malonate assessed as [14C]-labeled 22C fatty acid level at 1 uM after 3 hr by liquid scintillation counting (reference value: 26.7 +/- 2.6%); format: functional; set-up: scale not given: the % may be the effect or the level left
Hordeum vulgare [10] = test: Inhibition of fatty acid synthesis in Hordeum vulgare (barley) using [14C]acetate assessed as [14C]-labeled 22C fatty acid level at 1 uM after 3 hr by liquid scintillation counting (reference value: 16.6 +/- 0.6%); format: functional; set-up: scale not given: the % may be the effect or the level left
Hordeum vulgare [11] = test: Inhibition of fatty acid synthesis in Hordeum vulgare (barley) using [14C]acetate assessed as [14C]-labeled 20C fatty acid level at 1 uM after 3 hr by liquid scintillation counting (reference value: 6.6 +/- 2.3%); format: functional; set-up: scale not given: the % may be the effect or the level left
Hordeum vulgare [12] = test: Inhibition of fatty acid synthesis in Hordeum vulgare (barley) using [14C]acetate assessed as [14C]-labeled 16C fatty acid level at 1 uM after 3 hr by liquid scintillation counting (reference value: 23.3 +/- 0.2%); format: functional; set-up: scale not given: the % may be the effect or the level left
Cucumis sativus [13] = test: Inhibition of fatty acid synthesis in Cucumis sativus (cucumber) using [14C]acetate assessed as [14C]-labeled 20C fatty acid level at 100 uM after 3 hr by liquid scintillation counting (reference value: 14.7 +/- 0.6%); format: functional; set-up: scale not given: the % may be the effect or the level left
Hordeum vulgare [14] = test: Inhibition of fatty acid synthesis in Hordeum vulgare (barley) using [14C]malonate assessed as [14C]-labeled 16C fatty acid level at 1 uM after 3 hr by liquid scintillation counting (reference value: 8.7 +/- 0.2%); format: functional; set-up: scale not given: the % may be the effect or the level left
Hordeum vulgare [15] = test: Inhibition of fatty acid synthesis in Hordeum vulgare (barley) assessed as inhibition of [14C]malonate incoporation in total fatty acids at 1 uM measured as total disintegration per g of fresh weight after 3 hr by liquid scintillation counting (reference value: 5.4 +/- 0.9 1 dpm x 10^6 g'1 fresh wt); format: functional
Cucumis sativus [16] = test: Inhibition of fatty acid synthesis in Cucumis sativus (cucumber) assessed as inhibition of [14C]acetate incoporation in total fatty acids at 100 uM measured as total disintegration per g of fresh weight after 3 hr by liquid scintillation counting (reference value: 9.2 +/- 2.1 dpm x 10^6 g'1 fresh wt); format: functional
Cucumis sativus [17] = test: Inhibition of fatty acid synthesis in Cucumis sativus (cucumber) using [14C]acetate assessed as [14C]-labeled 16C fatty acid level at 100 uM after 3 hr by liquid scintillation counting (reference value: 31 +/- 2.8%); format: functional; set-up: scale not given: the % may be the effect or the level left
Hordeum vulgare [18] = test: Inhibition of fatty acid synthesis in Hordeum vulgare (barley) using [14C]malonate assessed as [14C]-labeled 26C fatty acid level at 1 uM after 3 hr by liquid scintillation counting (reference value: 7.6 +/- 1.8%); format: functional; set-up: scale not given: the % may be the effect or the level left
Hordeum vulgare [19] = test: Inhibition of fatty acid synthesis in Hordeum vulgare (barley) using [14C]malonate assessed as [14C]-labeled 18C fatty acid level at 1 uM after 3 hr by liquid scintillation counting (reference value: 30.3 +/- 2.9%); format: functional; set-up: scale not given: the % may be the effect or the level left
Hordeum vulgare [20] = test: Inhibition of fatty acid synthesis in Hordeum vulgare (barley) assessed as inhibition of [14C]acetate incoporation in total fatty acids at 1 uM measured as total disintegration per g of fresh weight after 3 hr by liquid scintillation counting (reference value: 4.6 +/- 1.2 dpm x 10^6 g'1 fresh wt); format: functional

T1 sequence (Q3V4E6 whole entry): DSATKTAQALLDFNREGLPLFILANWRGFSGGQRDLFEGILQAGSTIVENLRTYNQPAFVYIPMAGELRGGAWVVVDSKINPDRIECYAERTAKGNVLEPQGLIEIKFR

CCc1cc(C)cc(CC)c1C1C(=O)N2CCOCCN2C1=O [PINOXADEN DIONE]
Activity (Cucumis sativus [1]): 47.4%
Activity (Hordeum vulgare [2]): 7.7%
IC50 (Acetyl-CoA carboxylase [3]): 16.9 µM
IC50 (Acetyl-CoA carboxylase [4]): 0.11 µM
Activity (Hordeum vulgare [5]): 32.6%
Activity (Hordeum vulgare [6]): 18.1%
Activity (Cucumis sativus [7]): 11.9%
Activity (Hordeum vulgare [8]): 27.7%
Activity (Hordeum vulgare [9]): 41.9%
Activity (Hordeum vulgare [10]): 32.7%
Activity (Hordeum vulgare [11]): 3.6%
Activity (Hordeum vulgare [12]): 3.1%
Activity (Cucumis sativus [13]): 10.1%
Activity (Hordeum vulgare [14]): 0.5%
Activity (Hordeum vulgare [15]): 5.1 ×10⁶ dpm
Activity (Cucumis sativus [16]): 9.2 ×10⁶ dpm
Activity (Cucumis sativus [17]): 30.4%
Activity (Hordeum vulgare [18]): 13.8%
Activity (Hordeum vulgare [19]): 8.3%
Activity (Hordeum vulgare [20]): 2.8 ×10⁶ dpm
